Paper PMC5351510 (Future Science OA, 2017)
Converted amounts (≈) assume the structure as drawn. Like-named read-outs stand apart in the source and are kept apart here.

Tests used:
[1] = cited from earlier work
[2] = Equilibrium solubility studies (shaker, HPTLC); format: physicochemical; conditions: experimental, at 25°C, mean of three
Procedure: Equilibrium solubility is the most vital physicochemical property that reflects the bioavailability of a compound. […] The equilibrated samples were centrifuged at 5000 r.p.m. (1398 × g) for 10 min to remove any undissolved drug and the supernatant was analyzed using HPTLC at a λmax of 262 nm. All the media were prepared according to the composition reported by Dressman and co-workers.

[3] = cited from earlier work; remark: listed apart in the source
[4] = Partition coefficient (log P), shake-flask octanol/water; format: physicochemical; conditions: experimental, 25.0 ± 0.1°C
Procedure: Lipophilicity is a molecular property of any compound that is vital to discern the extent of distribution in the body. The logarithm of octanol/water partition coefficient, in other words, log P, is the most extensively used parameter to quantify lipophilicity. The value of log P is a valuable predictor to determine the passive transport of drugs through the lipoid membranes of the human body. […] For this, first presaturation of the solvents (octanol and water) was conducted for 24 h. Then, Mgf in a concentration of 5 mg/100 ml was added to the equilibrated mixture. After separation of the equilibrated phases by centrifugation at 10,000 r.p.m. for 5 min, the concentration of the solute was determined in the aqueous phase using HPTLC at a λmax 262 nm for each sample:Equation 1 [drawing 2]

[5] = In situ single pass intestinal perfusion studies; format: in vivo, Wistar rats; conditions: both sexes, Wistar, other: in situ single pass perfusion of the jejunum; experimental, rat jejunum, perfusion rate 0.2 ml/min
Procedure: The in situ single pass intestinal perfusion studies were performed in a manner reported previously by our group in the past. Three unisex Wistar rats (250–280 g) were fasted for at least 24 h prior to the study, while water was provided ad libitum. The animals were procured from University Centre Animal House, after obtaining the requisite approval from Animals Institutional Committee, Chandigarh (PU/IAEC/S/14/104). Anesthesia was induced by an intraperitoneal injection of thiopental sodium in the dose of 50 mg/kg of the body weight of the rats. After making an incision in the abdomen, provisions for inlet and outlet were made at proximal part of the jejunum, 2–4 cm below the ligament of Trietz and about 10 cm distal to the first incision. […] Finally, 1.5 ml of perfusate was added to the ethereal extract and the concentration of Mgf in the mixture was determined using HPTLC technique at 254 nm by applying the principles of Analytical Quality by Design. The value of effective permeability (Peff) was subsequently calculated using Equation 3 [31].Equation 3 [drawing 4]
where Q is the flow rate, Cin and Cout are the respective inlet and outlet concentrations, r is the radius of the intestine and l is the length of the intestine measured after completion of perfusion.

[6] = Determination of log D, aqueous phase pH 7.4; format: physicochemical; conditions: octanol / physiological buffer (aqueous phase at pH 7.4), experimental
Text: Log D, the logarithm of distribution constant or apparent partition, therefore, is a better descriptor of the lipophilicity of an ionizable compound that is likely to be charged at the physiological pH [26]. This can be determined in a similar manner to log P, but the aqueous phase, instead of being pure water, is adjusted to pH 7.4 using a physiological buffer:Equation 2 [drawing 3]

P-gp = conditions: cited from earlier work
[7] = at 45°C; cited from earlier work
MDR1 transporters = molecular target: T1, MDR1 transporters (Homo sapiens, UniProt P08183); assay: P-gp efflux assay (multidrug resistance direct dye efflux kit), Rhodamine-123 dye; format: cell-based; conditions: experimental, Caco-2 cells
T1 construct: overexpressed MDR1, MRP1 and BCRP membrane pumps on Caco-2 cells; endogenous in cells; host or cells: Caco-2 cells
T1 sequence (P08183 whole entry): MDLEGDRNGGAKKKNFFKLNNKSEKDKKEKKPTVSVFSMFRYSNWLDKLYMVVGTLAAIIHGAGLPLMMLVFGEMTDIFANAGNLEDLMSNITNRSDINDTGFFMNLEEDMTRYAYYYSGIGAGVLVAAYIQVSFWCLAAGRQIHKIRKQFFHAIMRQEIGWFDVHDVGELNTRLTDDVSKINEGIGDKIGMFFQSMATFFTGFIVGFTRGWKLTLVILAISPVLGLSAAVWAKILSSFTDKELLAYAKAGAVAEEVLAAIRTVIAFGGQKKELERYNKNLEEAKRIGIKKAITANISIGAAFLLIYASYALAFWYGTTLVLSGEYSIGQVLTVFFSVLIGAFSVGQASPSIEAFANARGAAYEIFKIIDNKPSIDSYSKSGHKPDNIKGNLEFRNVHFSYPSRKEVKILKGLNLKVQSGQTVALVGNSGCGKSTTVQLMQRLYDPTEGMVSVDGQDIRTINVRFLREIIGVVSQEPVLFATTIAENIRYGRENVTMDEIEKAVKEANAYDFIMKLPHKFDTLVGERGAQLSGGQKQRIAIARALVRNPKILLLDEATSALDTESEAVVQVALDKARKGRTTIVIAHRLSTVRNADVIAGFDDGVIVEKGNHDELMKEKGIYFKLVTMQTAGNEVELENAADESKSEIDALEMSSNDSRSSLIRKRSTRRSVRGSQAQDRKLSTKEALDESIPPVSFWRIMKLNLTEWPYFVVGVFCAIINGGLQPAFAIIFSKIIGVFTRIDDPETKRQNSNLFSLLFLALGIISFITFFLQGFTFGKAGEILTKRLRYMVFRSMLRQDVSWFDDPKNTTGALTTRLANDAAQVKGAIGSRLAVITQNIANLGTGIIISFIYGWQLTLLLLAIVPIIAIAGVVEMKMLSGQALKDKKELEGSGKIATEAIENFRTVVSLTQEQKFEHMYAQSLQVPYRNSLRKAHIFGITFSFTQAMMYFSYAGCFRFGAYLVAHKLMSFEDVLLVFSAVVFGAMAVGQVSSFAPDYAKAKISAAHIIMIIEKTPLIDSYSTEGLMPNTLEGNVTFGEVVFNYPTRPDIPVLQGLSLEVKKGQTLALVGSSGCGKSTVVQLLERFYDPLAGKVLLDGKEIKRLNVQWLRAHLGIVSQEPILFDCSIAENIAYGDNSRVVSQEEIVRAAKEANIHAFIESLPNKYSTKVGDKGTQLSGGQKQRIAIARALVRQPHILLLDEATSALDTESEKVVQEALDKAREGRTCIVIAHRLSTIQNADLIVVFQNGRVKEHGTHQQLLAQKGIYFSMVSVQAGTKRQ
Procedure: Furthermore, the multidrug resistance directs dye efflux assay kit (Chemicon® International, CA, USA and Serologicals® Corporations, GA, USA) was employed, in which the Caco-2 cells were loaded with rhodamine 123 (Rh-123) and diethyloxacarbocyanine (DiOC2) dyes in the presence or absence of vinblastine. In order to access the functional activity of the inhibition of overexpressed MDR1, MRP1 and BCRP membrane pumps on Caco-2 cells in the presence of Mgf, the fluorescence intensity was measured in a Tecan fluorescence microplate reader (Tecan Ltd, Männedorf, Switzerland) at an excitation wavelength of 485 nm and an emission wavelength of 530 nm. For the purpose, Caco-2 cells in the concentration of 2.5 × 10^5 were incubated with Rh-123 alone and with vinblastine, and Rh-123-loaded Mgf at 37°C to access the inhibitory activity of Mgf on MDR1 transporters. Likewise, to estimate the ability of Mgf to act as a substrate for BCRP transportors, DiOC2 dye was employed. On the similar heels, Caco-2 cells (2.5 × 10^5) were incubated with DiOC2 alone and with vinblastine, and DiOC2-loaded Mgf at 37°C.

solubility at 72 h ([2]; fasted-state simulated gastric fluid, read-out: Solubility in fasted-state simulated gastric fluid): 140 µg/mL (≈ 331 µM) | solubility at 72 h ([2]; fasted-state simulated intestinal fluid, fassif, thermodynamic from solid, read-out: Solubility in fasted-state simulated intestinal fluid): 1480 µg/mL (≈ 3500 µM) | solubility at 72 h ([2]; fed-state simulated intestinal fluid, fessif, thermodynamic from solid, read-out: Solubility in fed-state simulated intestinal fluid): 3980 µg/mL (≈ 9420 µM) | solubility at 72 h ([2]; thermodynamic from solid, water, read-out: Aqueous solubility): 380 µg/mL (≈ 900 µM) | logP [4]: -0.65 | effective permeability (Peff) [5]: 16 ×10⁻⁶ cm/s | logD [6]: -0.79 | P-gp substrate (MDR1 transporters): Yes
SMILES: O=c1c2cc(O)c(O)cc2oc2cc(O)c([C@@H]3O[C@H](CO)[C@@H](O)[C@H](O)[C@H]3O)c(O)c12 [mangiferin, (1S)-1,5-Anhydro-1-(1,3,6,7-tetrahydroxy-9-oxo-9H-xanthen-2-yl)-D-glucitol]
AUC0–t rise in streptozotocin-induced diabetic rats compared with normal rats ([1]; plasma): 2.35 fold | Cmax rise in streptozotocin-induced diabetic rats compared with normal rats ([1]; plasma): 2.79 fold | Maximum plasma levels ([1]; rats, oral): 715.04 ± 600.14 ng/mL | Time of maximum plasma levels after oral intake ([1]; rats, oral): 0.72 h | log P [3]: -0.09 to -0.36 | P-gp substrate (P-gp): Yes | Aqueous solubility [7]: 0.25 mg/ml at 45 °C
